Measurements as given in patent publication US7033829B2, “Method to inhibit cell growth using oligonucleotides” (Trustees of Boston University, priority 2000, dated 2006).
Oligonucleotides are written 5' to 3', each unit as a sugar letter and its base; * is a phosphorothioate linkage, no mark a phosphodiester; rarer units and linkages stand in square brackets, end groups in braces. Plain capitals give the bases only. d = 2'-deoxy (DNA); {P} = phosphate

Columns and labels:
[1] = system: p21/Waf 1/Cip 1 gene; experiment: p21 mRNA Northern blot in SCC12F cells; format: cell-based, human; conditions: for p21 mRNA level relative to diluent control: 48 hours, FIG. 13; for increase of p21/Waf 1/Cip 1 mRNA level: within 48 hours
Protocol: The induction of melanogenesis in Cloudman S91 mouse melanoma cells by a five-nucleotide oligomer CATAC (SEQ ID NO: 6) and a nine-nucleotide oligomer, GAGTATGAG (SEQ ID NO: 1) was examined. Duplicates of Cloudman S91 murine melanoma cells were incubated with either 100 μM oligo or an equal volume of diluent (H2O) for 5 days. The cells were then collected, counted, and an equal number of cells were pelleted for melanin analysis. […] Variations of this oligonucleotide were evaluated: a scrambled 9-mer (TAGGAGGAT; SEQ ID NO: 2) and two truncated versions, a 7-mer (AGTATGA; SEQ ID NO: 3) and second 5-mer (GTATG; SEQ ID NO: 4). […] The truncated versions (SEQ ID NOs: 3 and 4) were also active, inducing 640% and 670% increases, respectively.
pTpT was previously found to inhibit cell cycle progression, at least in part through activation of p53 and subsequent upregulation of the cyclin dependent kinase inhibitor p21. Cultures of the human keratinocyte line SCC12F were treated with pTpT, SEQ ID NO: 1, SEQ ID NO: 6 or diluent alone as a negative control, collected and counted 48 hours later and processed for northern blot analysis of p21 mRNA expression. […] Thus, the sequences of the present invention activate p53 and inhibit cell proliferation similar to the effect of pTpT.

[2] = system: S91 cells; experiment: Cellular uptake of FAM-labeled oligonucleotides in S91 cells; format: in vitro ADME, mouse; conditions: 4 hours
Protocol: Fluorescein phosphoramidite (FAM) labeled oligonucleotides were added to cultures of S91 cells for 4 hours and the cells were then prepared for confocal microscopy. Nuclei, identified by staining with propidium iodide, appeared red and FAM-labeled oligonucleotides appeared green. Co-localization of red and green signals was assigned a yellow color by the computer. […] There was no change in the profile of oligonucleotide uptake after 6 and 24 hours.

[3] = system: normal (control) fibroblasts; experiment: FACS analysis of normal (control) fibroblasts; format: cell-based, human; conditions: 40 μM
Protocol: Fibroblasts were obtained from an NBS (Nijmegen breakage syndrome) patient, in which p95/Nbs1 was below the level of detection. Preconfluent cultures or normal (control) fibroblasts and NBS fibroblasts were treated with 40 μM of the oligonucleotides and collected after 48 hours for FACS analysis (FIGS. 34A–34H). The averages and standard deviations were calculated from triplicate cultures of each condition. FACS profiles from one representative experiment of three are shown.

[4] = system: normal neonatal human fibroblasts; experiment: FACS analysis of normal neonatal fibroblasts; format: cell-based; conditions: 40 μM; for S-phase checkpoint: within 24 hours
Protocol: The averages and standard deviations presented in FIGS. 32A–32D were determined from triplicate samples. One representative experiment of three is presented. […] Control 11-base oligonucleotides complementary (11mer-2) or unrelated (11mer-3) to the telomere overhang had no effect on the cells.

[5] = system: MM-AN cells; experiment: Tumorigenicity of pretreated MM-AN cells in SCID mice; format: in vivo; conditions: cells pretreated 40 μM 48 hours; day 18 (diluent 322±45)
Protocol: To study the effect of T-oligo on the tumorigenicity of MM-AN cells, cells were grown in DMEM with 5% fetal bovine serum (FBS) and treated with 40 μM of T-oligo, complement, or diluent alone for 48 hours. The cells were then harvested with trypsin/EDTA and the percent viability determined by trypan blue exclusion. […] The tumorigenicity of these melanoma cells was determined by injecting 1×10^6 viable cells in balanced salt solution subcutaneously over the right scapular region of SCID mice (3 groups of 5 mice) to produce tumors. The animals were sacrificed by CO2 inhalation 18 days after treatment and the tumor size evaluated with calipers. Tumors were processed for hematoxylin and eosin staining and the melanocytic origin of the tumors was confirmed by immunohistochemical staining of the lesion using HMB-45 monoclonal antibody, which recognizes gp-100, a conventional marker for human melanoma.

[6] = system: SCC12F cells; experiment: FACS cell cycle analysis of SCC12F cells; format: cell-based, human; conditions: for cells in the S phase / S-phase arrest: 48 hours (control 26%)
Protocol: However, when increasing concentrations of the phosphorothioate 11mer-1 were also added to these cultures, fewer cells became arrested (FIGS. 21A–21G).
Exposure of keratinocytes to UVB irradiation affects the expression of genes involved in cell cycle arrest, DNA repair and cytokine production. Single-stranded oligonucleotides sharing sequence homology with the telomere 3′ overhang, when introduced into cells, mimic these UV effects. To identify other genes that may be similarly modulated, cells of keratinocyte origin (SCC12F; a human epidermal squamous cell carcinoma line provided by Dr. James Rheinwald of Harvard University) were exposed to solar simulated irradiation (SSR) (20 mJ/cm^2, measured at 285±5 nm), to an 11-base oligonucleotide (pGTTAGGGTTAG; SEQ ID NO:5) homologous to the telomere overhang (T-oligo), or to a complementary sequence as control [pCTAACCCTAAC; (SEQ ID NO:9) control oligonucleotide]. […] These are mitochondrial-transcribed genes whose encoded proteins participate in cellular respiration.
In order to determine whether these oligonucleotides similarly affect other human cell types and to investigate the role of p53, we treated a squamous cell carcinoma line (SCC12F) (Rheinwald, J. G., et al., 1983, Human carcinogenesis. pp. 86–96. Academic Press (New York)) that over-expresses a presumptively mutated p53 (Eller, M. S. and B. A. Gilchrest. 2000, Pigment Cell Res. 13: 94–97) and a p53-null osteosarcoma cell line (Saos-2) (Wang, L. H., et al., 1998, Anticancer Res 18: 321–325) with either diluent alone, 11mer-1, 11mer-2 or 11mer-3. Cultures were analyzed by FACS after 48 hours (FIGS. 33A–33H). […] Although the percentage of cells in the S-phase in 11mer-1-treated SCC12F and Saos-2 cells was virtually identical (53±6% and 52±1%, respectively), the G0/G1 and G2/M content of the two cell types were somewhat different. This may reflect differential uptake of the oligonucleotide leading to dose-dependent differences, and/or different pathways acting in these cells to control the cell cycle. No apoptotic response to the oligonucleotides was detected in either cell type within 72 hours.

pGAGTATGAG (DNA, 5' {P}, backbone not given here) [SEQ ID NO: 1]
p21 mRNA level relative to diluent control [1]: ~3 fold
increase of p21/Waf 1/Cip 1 mRNA level [1]: 200–300%
cellular uptake and localization (confocal microscopy, FACS) [2]: intense staining that strongly localized to the nucleus

pGTTAGGGTTAG (DNA {P}-dGdTdTdAdGdGdGdTdTdAdG) [SEQ ID NO: 5]
S phase growth arrest [3]: exhibit an S phase growth arrest within 24 hours
apoptotic cells ([4]; up to 72 hours): no apoptotic cells were detected
S-phase checkpoint [4]: activation of an S-phase checkpoint
Mean tumor volume [5]: 56±13 mm^3
cells in the S-phase ([6]; 40 μM, 48 hours): 53±6%
cells in the S phase / S-phase arrest [6]: Forty-three precent
cells arrested in the S-phase ([6]; Example 27 (control cells <23%)): > 43%

thymidine dinucleotide [pTpT]
p21 mRNA level relative to diluent control [1]: twice that of control cells
increase of p21/Waf 1/Cip 1 mRNA level [1]: 100–150%
cellular uptake and localization (confocal microscopy, FACS) [2]: strong green fluorescence in the cytoplasm, but only a small amount of nuclear localization

pCTAACCCTAAC (DNA, 5' {P}, backbone not given here) [SEQ ID NO: 9, reference compound]
S phase growth arrest [3]: unaffected
S-phase checkpoint [4]: had no effect
Mean tumor volume [5]: 238±50 mm^3

11mer-1-S: phosphorothioate 11mer-1 (dG*dT*dT*dA*dG*dG*dG*dT*dT*dA*dG; further chemistry not fully specified)
cells in the S phase / S-phase arrest [6]: did not induce the S-phase arrest

pGATCGATCGAT (DNA {P}-dGdAdTdCdGdAdTdCdGdAdT) [SEQ ID NO: 10, reference compound]
S phase growth arrest [3]: unaffected
S-phase checkpoint [4]: had no effect
